Experiment [1] concerns the target T1, Phosphatidylcholine transfer protein (Homo sapiens) (UniProt Q9UKL6).
T1 sequence (whole entry): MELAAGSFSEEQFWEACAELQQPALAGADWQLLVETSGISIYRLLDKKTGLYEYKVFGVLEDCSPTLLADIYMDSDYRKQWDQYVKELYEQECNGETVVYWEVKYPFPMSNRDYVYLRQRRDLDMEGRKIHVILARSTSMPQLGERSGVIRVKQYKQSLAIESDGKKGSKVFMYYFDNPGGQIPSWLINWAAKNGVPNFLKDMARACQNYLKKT
Kind of experiment: Inhibition of PC-TP in human hepatocytes assessed as enhancement of insulin signaling by measuring p-AMPK-alpha T172 levels at 0.05 to 0.1 uM incubated for 60 mins by immunoblot analysis. The class given is cell-based.

In experiment [2] the target is T1, Phosphatidylcholine transfer protein (Homo sapiens). Kind of experiment: Inhibition of PC-TP in human hepatocytes assessed as enhancement of insulin signaling by measuring p-S6K T389 levels at 0.05 to 0.1 uM incubated for 60 mins by immunoblot analysis. The class given is cell-based.
Experiment [3] has the same target. As to the kind of experiment: Inhibition of PC-TP in human hepatocytes assessed as enhancement of insulin signaling by measuring p-AKT S473 levels at 0.05 to 0.1 uM incubated for 60 mins by immunoblot analysis. The class given is cell-based.
The target is the same in experiment [4]. Kind of experiment: Binding affinity to N-terminal His-tagged human PC-TP expressed in Escherichia coli assessed as relative binding constant K(rel) at 5 to 75 uM in presence of TCNQ by fluorescent pyrene-labeled phosphatidylcholine based displacement assay relative to control.
Experiment [5] shares this target. Kind of experiment: Inhibition of PC-TP in human hepatocytes assessed as enhancement of insulin signaling by measuring p-GSK-3beta S9 levels at 0.05 to 0.1 uM incubated for 60 mins by immunoblot analysis. It is filed as cell-based.
For experiment [6] the target is unchanged. As to the kind of experiment: Binding affinity to N-terminal His-tagged human PC-TP expressed in Escherichia coli at 5 to 75 uM in presence of TCNQ by fluorescent pyrene-labeled phosphatidylcholine based displacement assay.
The target in experiment [7] is T2, Phosphatidylcholine transfer protein (Homo sapiens, UniProt Q9UKL6).
T2 sequence (Q9UKL6 whole entry): T1 sequence (whole entry)
As to the kind of experiment: Inhibition of N-terminal His-tagged human PC-TP expressed in Escherichia coli using NBD-PC and donor and acceptor small unilamellar vesicles by fluorescence quench assay.

Molecules are shown by their SMILES. Activity calls are given as the source filed them. The calls are words filed in the database; no cut-off is given here.

Consider `Cc1cc(C)nc(NS(=O)(=O)c2ccc(NC(=O)NC(=O)c3ccc(Cl)cc3Cl)cc2)n1`, for which the inhibition entry in experiment [1], in experiment [2], in experiment [3] and in experiment [5] was “Active” in each case. In addition, the Ratio in experiment [4] was 1.1. For the same compound, the Activity result in experiment [6] was “Dose-dependent effect”.
Take `O=C(Nc1cc(Cl)cc(Cl)c1)C(Sc1cccc[n+]1[O-])c1ccccc1` (stereo unspecified): the inhibition entry in experiment [1], in experiment [2], in experiment [3] and in experiment [5] was “Active” in each case.
What is called IC50 is the point on the concentration scale where inhibition reaches its midpoint. High values mean weaker potency in that assay, low ones greater potency in that assay. `Cc1ccc(NC(=O)C(Sc2cccc[n+]2[O-])c2ccccc2)cc1Cl` (stereo unspecified) had an IC50 in experiment [7] of 100 µM.

Source of the values: ChEMBL document CHEMBL4482317, “Phosphatidylcholine transfer protein inhibitors” (2017).
